# Experimental data: patent US8569362B2, “Polyketide molecules as anticancer agents” (Pierre Fabre Medicament, priority 2009, dated 2013)
# pIC50: −log10 of the molar value.
# Assays:
# Format in all cases: cell-based
# LoVo (colon cancer) = assay: Growth inhibition of human cancer cell lines, ATP-lite luminescence, LoVo; details: 48 h incubation, cell survival by ATP luminescence
# Protocol: (§1) The cancerous cells [lines A549 (non small cell lung cancer), BxPC3 (cancer of the pancreas), LoVo (colon cancer), MCF7 (breast cancer), Namalwa (Burkitt's lymphoma) and SK-OV-3 (ovarian cancer)] were cultured in a 96-well plate in RPMI 1640 medium without phenol red (Seromed) to which was added 10% of foetal veal serum (100 μl/well, 1 to 3.10^4 cells/ml depending on the considered line). After an incubation of 24 h at 37° C. in an incubator with 5% CO2, the medium was replaced by that containing the compound to be tested (molecule I-1), after which the plates were incubated for an additional 48 h. Cell survival was evaluated by measurement of the luminescence after release of ATP in the medium using the cell lysis solutions, luciferase and luciferine contained in the ATP-lite-MTM kit, as recommended by the manufacturer (Packard, Rungis, France). Each experimental condition was tested at least three times in sextuplets. The table below presents the IC50 data (expressed in M) of the molecule I-1, as a function of the different cell lines tested.
# [1] = tested on: BxPC3 (cancer of the pancreas); assay: Growth inhibition of human cancer cell lines, ATP-lite luminescence, BxPC3; details: BXPC-3, BxPC3, 48 h incubation, cell survival by ATP luminescence
# Protocol: as §1
# [2] = tested on: Namalwa (Burkitt's lymphoma); assay: Growth inhibition of human cancer cell lines, ATP-lite luminescence, Namalwa; details: 48 h incubation, cell survival by ATP luminescence
# Protocol: as §1
# [3] = tested on: A549 (non small cell lung cancer); assay: Growth inhibition of human cancer cell lines, ATP-lite luminescence, A549; details: A549, 48 h incubation, cell survival by ATP luminescence
# Protocol: as §1
# SK-OV-3 (ovarian cancer) = assay: Growth inhibition of human cancer cell lines, ATP-lite luminescence, SK-OV-3; details: SK-OV-3, 48 h incubation, cell survival by ATP luminescence
# Protocol: as §1
# MCF7 (breast cancer) = assay: Growth inhibition of human cancer cell lines, ATP-lite luminescence, MCF7; details: MCF7, 48 h incubation, cell survival by ATP luminescence
# Protocol: as §1
# [4] = tested on: HeLa tumoral cells (human carcinoma); assay: Cellular phenotype (immunofluorescence and microscopy; α-tubulin, γ-tubulin, DAPI); details: 24 h treatment
# Protocol: The HeLa tumoral cells (human carcinoma) were cultured for 24 h on 12 mm diameter glass slides, placed in 24-well culture plates (7.10^3 cells per well).
# The cells were then treated for a new period of 24 h by the molecule I-1 at the tested concentrations. […] The DNA was labelled with DAPI (0.2 μg/ml—15 minutes—37° C.). After the different labellings, the slides were dried and mounted in a Vectashield mounting liquid (AbCys, France), before being observed through an epi-fluorescence microscope (Axiovert 200M; objective×63 Plan Apochromat NA, 1.4; ZEISS, France).
compound,measurement,setting,value
COC(CCC(C)C1(O)CC(C(C)/C=C(C)/C=C(\C)C(O)C(C)C(O)C(C)C(OC)C(C)/C=C/C=C/C=C/C(=O)O)OC(=O)C1O)CC(CC(O)C(C)C/C=C/C(C)C1CC(C(C)CCC(C)O)C(O)C(=O)O1)OC (stereo not shown) [molecule I-1],pIC50,LoVo (colon cancer),10.09
same,pIC50,[1],9.33
same,pIC50,[2],8.96
same,pIC50,[3],9.09
same,pIC50,SK-OV-3 (ovarian cancer),9.48
same,pIC50,MCF7 (breast cancer),10.96
same,Centrosomes of interphasic cells (γ-tubulin labelling),[4]; between 5.10^−9M and 5.10^−8M,often separated and normally labelled by γ-tubulin
same,Microtubular cytoskeleton of interphasic cells (labelling by α-tubulin),[4]; between 5.10^−9M and 5.10^−8M,devoid of microtubular cytoskeleton
same,Centrosomes of mitotic cells (γ-tubulin labelling),[4]; between 10^−9M and 5.10^−8M,normally present and labelled by γ-tubulin
same,Mitotic cells: mitotic block and microtubules (α-tubulin labelling),[4]; dose effect between 10^−9M and 5.10^−8M,blocked in prometaphase without microtubules
